Measurements from US7871635B2, “Use of compound that inactivates protein kinase A in a composition containing a cosmetically acceptable medium for lightening the skin” (Societe d'Exploitation de Produits pour les Industries …, priority 2002, dated 2011).

Experiments:
[1] = system: Pigmented human epidermides (phototype IV); experiment: Intracellular melanin content in reconstructed human epidermides; assay type: cell-based; conditions: topical, 4 days; for Intracellular melanin: control 347 ± 2 μg/ml
Protocol: Pigmented human epidermides (phototype IV) supplied by Skinethic, of 0.63 cm^2, are reconstructed from a coculture of normal human keratinocytes (skin of the forearm, donor, 2nd passage) and from normal human melanocytes (skin of the forearm, donor of phototype IV, 3rd passage). The keratinocyte/melanocyte ratio is 10:1. The cocultures are inoculated onto inert polycarbonate filters. They are cultured for 10 days in the medium supplied by Skinethic, consisting of MCDB 153 medium supplemented with 5 μg/ml of insulin, 1.5 mM of calcium and growth factors. […] The epidermides are cultured in 6-well plates containing 1 ml of the medium described above. […] The application is performed every day for 4 consecutive days. The incubation medium of the reconstructed epidermides is renewed every day for 4 consecutive days. Control epidermides are treated with a formulation free of active principle. Each test is performed in duplicate. […] Dermatol., 105, 1995, 361-366. The samples are centrifuged for 10 minutes at 10 000 rpm. The extracted intracellular […] measured by spectrophotometry at 500 nm. A melanin calibration range is prepared in parallel. The results are expressed as […] of intracellular melanin and as a percentage of inhibition relative to the control group.

MC1R receptors = target: T1, MC1R receptors (Mus musculus, UniProt Q01727); experiment: Affinity study on MC1R receptors ([125I]NDP-α-MSH binding); conditions: for Activity relative to the control (percentage of specific binding): [125I]NDP-α-MSH 0.05 nM, 90 minutes at 22° C.; for inhibition at 100 µg/mL / inhibition at 1000 µg/mL: read-out: Inhibition of specific binding by the test products; for displacement of the specific binding of the ligand [125I]NDP-α-MSH: at the test concentrations (0.1 mg/ml and 1 mg/ml)
T1 construct: isolated from cell membranes of mouse melanocytes of the B16/F1 line; endogenous in cells; host or cells: B16/F1 mouse melanocyte (melanoma) cell membranes
Protocol: MC1R receptors are isolated from cell membranes of mouse melanocytes of the B16/F1 line via the method described in: Siegrist W., Oestreicher M., Stutz M., Girard J. and […]., 8, 1988, 323-343”. […] Sodium hydroxide has no effect on the parameter studied. The MC1R receptors are incubated, in the presence or absence of these products, with an iodine-125 labeled radioactive ligand, the […]-α-melanocyte […] hormone [^125I]NDP-α-MSH at a concentration of 0.05 nM, for 90 minutes at 22° C. Control cultures are incubated, in the absence of product, and in the presence of the radioactive ligand. Each test is performed in triplicate. After incubation for 90 minutes, the cell membranes are rapidly filtered and the filters are washed several times with cold buffer. The amount of radioactive ligand bound to the MC1R receptors is measured using a scintillation counter (Topcount, Packard). The results given in the table below are the means of the three tests performed for each of the products. They are expressed as a percentage of specific binding relative to the control group and as a percentage of inhibition of this binding.

tyrosinase = experiment: Study of phosphorylated tyrosinase activity (L-tyrosine to dopaquinone, 490 nm); assay type: biochemical, fungi; conditions: tyrosinase 66.66 IU/ml, tyrosine 0.2 mM, 10 minutes at 37° C.
Protocol: The tyrosinase used is a commercial product extracted from fungi. […] Sodium hydroxide has no effect on the parameter studied. […] Control cultures are incubated, in the absence of product, and in the presence of tyrosinase and L-tyrosine. Each test is performed in triplicate. After incubation for 10 minutes, the amount of dopaquinone […] formed is measured using a spectrophotometer at 490 nm. The results given in the table below are the means of the three tests performed for each of the products. They are expressed as IU/l of tyrosinase activity and as a percentage of inhibition of the enzymatic activity relative to the control.

[2] = system: B16/F1 melanocyte cultures; experiment: Intracellular protein content (cytotoxicity) in B16/F1 melanocyte cultures; assay type: cell-based, mouse
Protocol: Mouse melanocytes of the B16/F1 line are inoculated in 96-well culture plates at a density of 1500 cells/well. […] The cells are used at 60% of confluence, i.e. 4 days after inoculation. The MCM medium has the following composition: […] N-Undecylenoylphenylalanine is diluted to 4 mg/ml in decinormal aqueous sodium hydroxide solution. It is tested at 40 μg/ml in the MCM medium. Sodium hydroxide has no effect on the parameters analyzed. […] Given its toxicity, it is not tested at 40 μg/ml. […] Control cultures are incubated, in the absence of product, in the MCM medium. These control cultures are prepared on each culture plate. Each test is performed six times. This assay allows the cytotoxicity of the test products to be evaluated. It is performed in cell lysates prepared as described in the preceding paragraph. The protein assay is performed according to the Coomassie blue method described by: “Bradford M.; Anal. Biochem., 72, 1976, 248-254”. The measurement is performed by spectrophotometry at 640 nm. A bovine serum albumin (BSA) calibration range is prepared in parallel. The results are expressed as mg/ml of proteins and as a percentage of inhibition relative to the control group.

endogenous tyrosinase = experiment: Phosphorylated tyrosinase activity in B16/F1 melanocyte lysates; assay type: cell-based, mouse; conditions: 72 hours; for Tyrosinase activity: control 9.8 ± 0.3 IU/ml
Protocol: Mouse melanocytes of the B16/F1 line are inoculated in 96-well culture plates at a density of 1500 cells/well. The cells are cultured in a culture medium (MCM medium) at 37° C. under a humid atmosphere containing 5% CO2. The cells are used at 60% of confluence, i.e. 4 days after inoculation.
The MCM medium has the following composition: DMEM medium (Dulbecco's Modified Eagle's Medium) containing 4.5 g/l of glucose supplemented with L-glutamine (2 mM), penicillin (50 IU/ml), streptomycin (50 μg/ml) and fetal calf serum (10% v/v).
N-Undecylenoylphenylalanine is diluted to 4 mg/ml in decinormal aqueous sodium hydroxide solution. […]
The melanocyte cultures are incubated in the presence of the test product or of the reference products for 72 hours at 37° C., under a humid atmosphere containing 5% CO2.
Control cultures are incubated, in the absence of product, in the MCM medium. These control cultures are prepared on each culture plate.
Each test is performed six times.
After incubation for 72 hours, the second portion of the cell carpet (n=3) is rinsed with PBS. The cells are lyzed with Triton™ X100 at a concentration of 0.1% (w/v) for 30 minutes at room temperature. The activity of the endogenous tyrosinase is evaluated by adding 0.1% (w/v) of L-dopa, followed by incubation for 3 hours at 37° C. in the absence of air and light. The dopaquinone formed by the reaction between the tyrosinase and the L-dopa is measured by spectrophotometry at 450 nm. A calibration range of purified tyrosinase is prepared in parallel.
The results are expressed as IU/ml of tyrosinase activity and as a percentage of inhibition relative to the control group.

[3] = at 40 μg/ml, 72 hours, control 0.45 ± 0.01

T1 sequence (Q01727 whole entry): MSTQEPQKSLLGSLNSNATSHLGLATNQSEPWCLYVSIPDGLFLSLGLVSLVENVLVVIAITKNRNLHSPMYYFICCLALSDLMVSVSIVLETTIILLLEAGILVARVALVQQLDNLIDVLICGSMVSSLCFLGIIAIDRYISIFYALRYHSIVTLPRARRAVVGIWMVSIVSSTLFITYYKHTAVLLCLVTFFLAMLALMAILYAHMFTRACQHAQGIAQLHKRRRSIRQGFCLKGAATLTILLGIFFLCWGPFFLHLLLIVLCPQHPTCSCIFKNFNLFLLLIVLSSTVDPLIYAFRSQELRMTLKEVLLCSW

SMILES | Intracellular melanin ([1]; formulated at 1% (w/v)) | Intracellular melanin ([1]; formulated at 3% (w/v)) | Activity relative to the control (percentage of specific binding) (MC1R receptors; at 0.1 mg/ml) | inhibition at 100 µg/mL (MC1R receptors; at 0.1 mg/ml) | Activity relative to the control (percentage of specific binding) (MC1R receptors; at 1 mg/ml) | inhibition at 1000 µg/mL (MC1R receptors; at 1 mg/ml) | Percentage of inhibition of tyrosinase activity with the test products relative to the control (tyrosinase; at 0.1 mg/ml) | Percentage of inhibition of tyrosinase activity with the test products relative to the control (tyrosinase; at 1 mg/ml) | Total proteins [2, 3] | Inhibition of tyrosinase activity (endogenous tyrosinase; at 40 μg/ml) | Tyrosinase activity (endogenous tyrosinase; at 40 μg/ml) | displacement of the specific binding of the ligand [125I]NDP-α-MSH (MC1R receptors) | further results
C=CCCCCCCCCC(=O)NC(Cc1ccccc1)C(=O)O (centres unmarked) [N-Undecylenoylphenylalanine, N-(ω-undecylenoyl)phenylalanine] | 264 ± 9 µg/mL | 264 ± 11 µg/mL | 57.70 ± 2.38% | 42% | 4.20 ± 0.86% | 96% | 80% | 100% | 0.38 ± 0.01 mg/mL | 67% | 3.2 ± 0.6 IU/ml |  | Inhibition of the amount of intracellular melanin ([1]; formulated at 3% (w/v)): 24%; Inhibition of the amount of intracellular melanin ([1]; formulated at 3% (w/v), listed as N-undecylenoylphenylalanine): 24%; Inhibition of specific binding by the test products (MC1R receptors; at 0.1 mg/ml): 42.3%; Inhibition of specific binding by the test products (MC1R receptors; at 1 mg/ml): 95.8%; Inhibition of protein quantity ([2]; at 40 μg/ml, 72 hours): 17%
O=c1cc(CO)occ1O [Kojic acid, kojic acid] | 273 ± 2 µg/mL | 234 ± 19 µg/mL |  | 0% |  | 0% |  |  |  |  |  | neither arbutin nor kojic acid, which are the reference depigmenting compounds, displaces the specific binding | Total proteins ([2]; mouse, 72 h, 40 μg/ml): 0.41 ± 0.02 mg/mL
Oc1ccc(O)cc1 [Hydroquinone, hydroquinone] |  |  |  |  |  |  | 78% | 80% |  |  |  |  | Intracellular melanin ([1]; formulated at 0.1% (w/v)): 317 ± 0 µg/mL; Inhibition of protein quantity ([2]; mouse, 72 h, 5 μg/ml): 38%; Total proteins ([2]; mouse, 72 h, 5 μg/ml): 0.28 ± 0.01 mg/mL; Inhibition of tyrosinase activity (endogenous tyrosinase; at 5 μg/ml): 69%; Tyrosinase activity (endogenous tyrosinase; at 5 μg/ml): 3.0 ± 0.3 IU/ml
OC[C@H]1O[C@@H](Oc2ccc(O)cc2)[C@H](O)[C@@H](O)[C@@H]1O [Arbutin, arbutin] | 242 ± 46 µg/mL | 263 ± 16 µg/mL | 100.80 ± 0.55% | 0% | 96.30 ± 4.16% | 3.7% | 73% | 80% | 0.43 ± 0.01 mg/mL | 23% | 7.6 ± 1.1 IU/ml | neither arbutin nor kojic acid, which are the reference depigmenting compounds, displaces the specific binding | 
